Measurements reported in patent US20210047278A1, “E3 UBIQUITIN LIGASE AGONISTS, PHARMACEUTICAL COMPOSITIONS INCLUDING THE E3 UBIQUITIN LIGASE AGONISTS, RELATED METHODS OF USE” (FRED HUTCHINSON CANCER RESEARCH CENTER, priority 2018, published 2021).
Read-outs that look alike come from different tables or passages of the source.

Tests used:
Format in all cases: binding
pCycE alone = experiment: Counterscreen 2 ALPHAscreen with cyclin E phosphopeptide alone (CSRUN2/DCSRUN2); conditions: for CyCEP ACT DCSRUN2 Averaged Max % Response: activation relative to WT-FBW7+pCycE, averaged maximum; for EC50: dose-response, triplicate, 10 point 3-fold dilutional series, read-out: CyCEP ACT DCSRUN2 Final EC50
Protocol: (§1) Studies in 384-well format were performed using the ENVISION system. Reagent concentrations (see FIG. 6A), order of addition, pH (see FIG. 6B), and reducing agent were altered with the goal of enhancing the dynamic range between wt-FBW7 (the positive control) and FBW7^ARG (FIG. 6 and not shown). Wt-FBW7 produced a signal 100× greater with phosphorylated cyclin E degron peptide compared with unphosphorylated, which represents the assay's maximum range (FIG. 6C). […] This assay thus detects the residual affinity of the FBW7^ARG-substrate interaction, which, as predicted, is stronger than wt-FBW7 protein with unphosphorylated cyclin E peptide. Concurrent with this primary assay, counter ALPHAscreens were developed which omitted either FBW7 or peptide (to eliminate hits that are general ALPHAscreen agonists), or used an irrelevant phosphopeptide (to eliminate compounds that simply augment binding to phosphopeptides). […]
(§2) The 77 hits were subjected to a dose-response assay in which each compound was tested in triplicate in a 10 point 3-fold dilutional series, to a maximum concentration of approximately 87 μM. Three screens were performed, using FBW7^ARG+pCycE (DRUN), FBW7^ARG (DCSRUN1), or pCycE alone (DCSRUN2). See TABLES 2, 3, and 4, respectively, and FIG. 10A. All of the assays performed extremely well, and threshold of 10% activation (relative to WT-FBW7+pCycE) was set as positive. […] Many hits fell into shared structure cluster ID groups, reinforcing the idea that they function as specific agonists (see below and TABLE 5).

FBW7^ARG (RLFBW7) alone = biological target: T1, FBW7^ARG (RLFBW7) alone (Homo sapiens, UniProt Q969H0, R505L); experiment: Counterscreen 1 ALPHAscreen with FBW7^ARG alone (CSRUN1/DCSRUN1); conditions: dose-response counterscreen; for Emax: read-out: RLFBW7 ACT DCSRUN1 Averaged Max % Response
T1 construct: GST (TEV site and flexible linker) (N, cleaved yes); made in house; host or cells: SF9 insect cells (baculovirus)
T1 sequence (Q969H0 64-707 R505L): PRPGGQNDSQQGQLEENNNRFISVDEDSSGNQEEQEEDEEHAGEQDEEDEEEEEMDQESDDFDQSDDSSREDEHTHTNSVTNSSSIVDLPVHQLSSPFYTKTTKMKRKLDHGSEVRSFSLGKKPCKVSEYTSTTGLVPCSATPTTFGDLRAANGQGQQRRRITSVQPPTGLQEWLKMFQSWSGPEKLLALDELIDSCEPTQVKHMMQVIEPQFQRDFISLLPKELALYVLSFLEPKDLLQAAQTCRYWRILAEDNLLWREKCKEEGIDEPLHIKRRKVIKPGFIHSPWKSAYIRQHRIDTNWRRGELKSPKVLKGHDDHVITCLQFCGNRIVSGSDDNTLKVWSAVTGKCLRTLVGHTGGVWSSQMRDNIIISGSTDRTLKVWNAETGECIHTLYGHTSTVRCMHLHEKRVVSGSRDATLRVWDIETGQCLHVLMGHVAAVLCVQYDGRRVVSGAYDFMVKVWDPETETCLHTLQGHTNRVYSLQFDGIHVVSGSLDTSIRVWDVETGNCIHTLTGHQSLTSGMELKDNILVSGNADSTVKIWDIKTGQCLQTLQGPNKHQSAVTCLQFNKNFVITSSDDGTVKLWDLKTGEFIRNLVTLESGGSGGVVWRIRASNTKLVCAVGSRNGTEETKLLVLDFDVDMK
T1 sequence (P63208 2-163 partner): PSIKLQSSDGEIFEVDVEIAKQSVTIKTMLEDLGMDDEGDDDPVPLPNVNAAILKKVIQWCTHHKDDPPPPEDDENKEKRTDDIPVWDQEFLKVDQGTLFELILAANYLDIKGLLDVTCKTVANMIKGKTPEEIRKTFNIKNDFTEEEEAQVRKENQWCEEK
Protocol: as §1, §2

FBW7^ARG+pCycE = biological target: T2, FBW7^ARG+pCycE (Homo sapiens, UniProt Q969H0, R505L); experiment: FBW7^ARG-cyclin E agonist ALPHAscreen (primary PRUN, confirmation CRUN1, dose-response DRUN); conditions: for EC50 / Emax: DRUN dose-response; for Emax: relative to WT-FBW7+pCycE, read-out: FBW7 ACT Averaged Max % Response
T2 construct: GST (TEV site and flexible linker) (N, cleaved yes); made in house; host or cells: SF9 insect cells (baculovirus)
T2 sequence (Q969H0 64-707 R505L): as the sequence (Q969H0 64-707 R505L) above
T2 sequence (P63208 2-163 partner): as the sequence (P63208 2-163 partner) above
Description: FBW7^ARG refers to a class of loss-of-function mutations of the of FBW7 ubiquitin ligase that target a key phosphate-binding arginine residue in the FBW7 substrate-binding domain. These mutations are commonly found in human cancers and promote tumorigenesis by impairing the interactions between FBW7 and its substrates, such as cyclin E and Myc. Described herein is a high throughput screen (HTS) to identify agonists, such as small molecules, that augment FBW7^ARG-substrate binding. In an embodiment, the HTS is based on the Amplified Luminescent Proximity Homogenous Assay (ALPHAscreen) because it detects protein-protein interactions with a large dynamic range. ALPHAscreen is a bead-based proximity assay wherein donor beads contain a photosensitizer, phthalocyanine, and acceptor beads contain thioxene, anthracene and rubrenein in sufficient quantities to generate a chemiluminescence/fluorescence reaction (FIG. 4A). Upon excitation with excitation illumination, such as light having a wavelength of 680 nm, of the donor beads, phthalocyanine converts ambient oxygen to singlet oxygen, which can diffuse approximately 200 nm within its 4-microsecond half-life. If an acceptor bead is in close proximity to an excited donor bead, singlet oxygen transfers its energy to the acceptor, resulting in emitted light at a broad bandwidth of −520-620 nm. The HTS-compatible FBW7/cyclin E ALPHAscreen assay described herein uses streptavidin coupled donor beads and Ni-chelate acceptor beads. In this assay, biotinylated cyclin E phosphopeptide and the His-tagged FBW7 mutant protein have high affinity for the donor and acceptor beads, respectively (FIG. 4B). A small molecule that is able to bridge the binding sites of the peptide and the mutant protein (or induce a conformational change that increases affinity of the protein for the peptide) will bring the donor and acceptor beads in close proximity to each other, resulting in an ALPHA signal. As designed, this assay format is a very sensitive, non-radioactive, homogenous “mix-and-read” format that is HT compatible in 384 and 1536 well formats.
In the 384-well screening assay, 10 uL of acceptor beads with 25 nM of the FBW7^ARG (RLFBW7) are dispensed to test wells; acceptor beads with 25 nM of the wt-FBW7 protein (WTFBW7) are dispensed to control wells. Test compounds are then added by pintool transfer and the mixture is incubated for 30 minutes. An additional 10 uL of donor beads with 25 nM cyclin E phosphopeptide is then added to all wells and the plate is incubated for 4 hours before the ALPHA signal is measured.
In preparation for large-scale screening, the assay was miniaturized to a 1536-well format. The miniaturized screen performed outstandingly in all respects. The screen was enhanced with respect to several parameters and assayed its performance using mutant FBW7 and wt-FBW7, as well as non-specific assay agonists. […] For example, the following Z′-scores/FBW7 concentrations were obtained: 6.25 nM/Z′=0.62, 12.5 nm/Z′=0.85, 25.0 nM/Z′=0.84.
1. Add 2.5 uL of RLFBW7/cycE˜P/Ni beads: Final [25 nM/25 nM/10 ug/ml].
2. Add 2.5 uL of WTFBW7/cycE˜P/Ni beads: Final [25 nM/25 nM/10 ug/ml].
4. Add 2.5 uL of SA beads to all wells Final [10 ug/ml],
5. Add 30 nL of compounds,
6. Read ALPHAscreen on Envision
The large-scale FBW7 agonist ALPHAscreen was completed using FBW7^ARG and a phosphorylated cyclin E (pCycE) degron peptide. Wt-FBW7+pCycE-peptide was the “high control”, and Wt-FBW7+unphosph. CycE peptide was the “low control”. The screen was performed on the 645,000-compound Scripps Diversity Library using 1536-well format and drug concentrations of 26.1 μM. An algorithm aided hit identification based on the average percent activation for all compounds and their standard deviation.
A confirmation assay of all 853 compounds in triplicate using a single concentration (26.1 μM). […]

[1] = raw curve fit, read-out: RLFBW7 ACT DCSRUN1 EC50 Curve Fit Raw
[2] = read-out: RLFBW7 ACT DCSRUN1 Final EC50
[3] = raw curve fit, read-out: FBW7 ACT EC50 Curve Fit Raw, Molar
[4] = triplicate, 10 point 3-fold dilution, max approx. 87 μM, read-out: FBW7 ACT Final EC50, Molar
[5] = confirmation assay, triplicate, single concentration 26.1 μM, read-out: FBW7 ACT CRUN1 Avg % Response and Stdev
[6] = primary screen, 1536-well, 26.1 μM, FBW7^ARG + pCycE degron peptide, high control wt-FBW7+pCycE, read-out: FBW7 ACT PRUN % Response

Row | SMILES | CyCEP ACT DCSRUN2 Averaged Max % Response (pCycE alone) [%] | EC50 (pCycE alone) [µM] | EC50 (FBW7^ARG (RLFBW7) alone; [1]) [µM] | Emax (FBW7^ARG (RLFBW7) alone) [%] | EC50 (FBW7^ARG (RLFBW7) alone; [2]) [µM] | EC50 (FBW7^ARG+pCycE; [3]) [µM] | Emax (FBW7^ARG+pCycE) [%] | EC50 (FBW7^ARG+pCycE; [4]) [µM] | activation at 26.1 µM (FBW7^ARG+pCycE; [5]) [%] | activation at 26.1 µM (FBW7^ARG+pCycE; [6]) [%]
1 | COc1ccccc1-c1ccc(N2CCN(C(=O)COc3ccccc3)CC2)nn1 [SR-01000920770-1] | 0.32 | > 65.3 | 0.0059 | -0.274 | > 65.3 | 18 | 23.1 | > 65.3 | 5.69 ± 0.17 | 7.62
2 | CCSCCOC(=O)C1=C(C)NC2=C(C(=O)CCC2)C1c1ccc(Br)cc1 (stereo not drawn) [SR-01000422432-1] | 0.21 | > 54.4 | 24.5 | 0.86 | > 54.4 | 7.1 | 7.86 | > 54.4 | 5.2 ± 0.56 | 2.03
3 | CC(C)[C@@H](CO)Nc1ccc2ncc(-c3cccc(Cl)c3)n2n1 [SR-01000383396-1] | 0.27 | > 65.3 | – | 0.49 | > 65.3 | 0.127 | 6.14 | > 65.3 | 2.27 ± 0.17 | 2.03
4 | COc1ccccc1-c1ccc(=O)n(CC(=O)Nc2ccc(C(=O)N3CCCC3)cc2)n1 [SR-01000332536-1] | 0.12 | > 65.3 | 6.3 | 0.2 | > 65.3 | 19.1 | 18 | > 65.3 | 4.43 ± 0.25 | 4.09
5 | Cc1ccc(-c2cccc3cnc(Nc4ccc(-n5cnc(-c6ccccn6)n5)cc4)nc23)cn1.O=C(O)C(F)(F)F [SR-00000008492-1] | 0.22 | > 65.3 | 6.6 | 29.7 | > 65.3 | 4 | 8.53 | > 65.3 | 4.91 ± 0.39 | 5.73
6 | CCC(c1nnnn1CCC(C)C)N1CCN(C(=O)c2ccco2)CC1 (stereo not drawn) [SR-01000340422-1] | 0.18 | > 65.3 | 2.3 | 0.87 | > 65.3 | 24 | 6.45 | > 65.3 | 2.97 ± 0.23 | 2.16
7 | COCCOC(=O)C1=C(C)NC2=C(C(=O)CC(c3ccccc3)C2)C1c1ccc(OCc2ccccc2)cc1 (stereo not drawn) [SR-01000422392-1] | −57.8E−3 | > 51.3 | 0.689 | 3 | > 51.3 | 30.4 | 8.49 | > 51.3 | 5.36 ± 0.53 | 3.41
8 | COc1cccc(/C=N/c2ccc3[nH]ncc3c2)c1O [SR-01000359514-1] | 0.13 | > 65.3 | 23.7 | 0.39 | > 65.3 | 21.1 | 15.2 | > 65.3 | 2.38 ± 0.5 | 6.3
9 | Cc1ncn(-c2ccc(Nc3cc(-c4nocc4-c4ccccn4)ccn3)cc2)n1.O=C(O)C(F)(F)F [SR-00000006872-1] | 0.34 | > 65.3 | 83.6 | 2.08 | > 65.3 | 2.6 | 12.1 | > 65.3 | 4.15 ± 0.5 | 2.76
10 | CCS(=O)(=O)NCC(c1cccs1)S(=O)(=O)c1ccc(C)cc1 (stereo not drawn) [SR-01000023127-1] | 0.21 | > 66.4 | 0.0177 | 0.24 | > 66.4 | 7.6 | 14.7 | > 66.4 | 2.18 ± 0.61 | 3.19
11 | Cc1cc(OCC(=O)Nc2ccc3oc(-c4ccccc4Br)nc3c2)cc(C)c1Cl [SR-01000421466-1] | 0.02 | > 43.2 | – | 0.32 | > 43.2 | 0.0412 | 8.15 | > 43.2 | 3.2 ± 0.75 | 2.01
